The term AC50 denotes the concentration at which the activity in the assay is half-maximal. By IC50 is commonly meant the point on the concentration scale where inhibition reaches its midpoint.

The source of these data is patent publication US20230339900A1, “CASEIN KINASE 1 DELTA MODULATORS” (Janssen Pharmaceutica NV, priority 2020, published 2023).

Each structure is given as a SMILES string. Structures can show the parent of a compound that is named as a salt.

Test [1] deals with human recombinant GST cleaved CSNK1D (Homo sapiens (Human), UniProt P48730). As to the kind of experiment: Purified enzyme assay (ADP-Glo Kinase Assay). It counts as biochemical. The settings on record: 2 nM CSNK1D, peptide substrate 150 μM, ATP 20 μM, 45 minutes room temperature. In general terms: In ADP-Glo the light output rises with the ADP produced.
For test [2], the target named is human CSNK1D tagged with nanoluciferase (Homo sapiens (Human), UniProt P48730). Briefly: Whole Cell nBRET CSNK1D Binding Assay. The settings on record: living CHO cells stably expressing human CSNK1D-nanoluciferase; NanoBret tracer 130 nM; 2 hours 37° C.; read-out: CSNK1D BRET IC50. In a few lines: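 Live CHO cells stably expressing nanoluciferase-tagged CSNK1D, seeded in serum-free OptiMEM, received compound dose-response plus NanoBRET tracer (130 nM) for 2 h at 37 °C.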
In general terms: BRET reads energy transfer from a luciferase to a nearby fluorophore.

Chain of human CSNK1D tagged with nanoluciferase (P48730 whole entry): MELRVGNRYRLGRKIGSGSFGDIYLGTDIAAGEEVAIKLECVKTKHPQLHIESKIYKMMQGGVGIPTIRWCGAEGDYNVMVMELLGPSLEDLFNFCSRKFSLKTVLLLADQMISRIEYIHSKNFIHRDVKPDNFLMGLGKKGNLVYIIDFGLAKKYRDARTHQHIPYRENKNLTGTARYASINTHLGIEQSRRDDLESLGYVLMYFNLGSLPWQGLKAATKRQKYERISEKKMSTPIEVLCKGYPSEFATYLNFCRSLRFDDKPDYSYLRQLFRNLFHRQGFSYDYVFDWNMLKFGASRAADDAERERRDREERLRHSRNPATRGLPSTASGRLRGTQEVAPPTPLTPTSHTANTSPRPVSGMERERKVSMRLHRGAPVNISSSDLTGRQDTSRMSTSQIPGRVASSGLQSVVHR
Chain of human recombinant GST cleaved CSNK1D (P48730 whole entry): as above

In the case of `Cn1cc(-c2cc(N)nc3[nH]ccc23)c(-c2ccc(F)cn2)n1` [Example 119, 4-[3-(5-Fluoro-2-pyridyl)-1-methyl-pyrazol-4-yl]-1H-pyrrolo[2,3-b]pyridin-6-amine], in test [1], the AC50 worked out at 2 nM. Also, in test [2], the IC50 was determined as 32 nM.

Turning to `Cn1cc(-c2ccnc3[nH]cc(CC#N)c23)c(-c2ccc(F)cn2)n1` [Example 120, 2-[4-[3-(5-Fluoro-2-pyridyl)-1-methyl-pyrazol-4-yl]-1H-pyrrolo[2,3-b]pyridin-3-yl]acetonitrile], the AC50 in test [1] turned out to be 31 nM. Also, in test [2], the IC50 was 8710 nM.

For the compound `CCn1ncc2cc(-c3cn(C)nc3-c3ccc(F)cn3)cnc21` [Example 121, 1-Ethyl-5-[3-(5-fluoro-2-pyridyl)-1-methyl-pyrazol-4-yl]pyrazolo[3,4-b]pyridine], the half-maximal activity concentration (AC50) in test [1] was 43 nM. For the same compound, the half-maximal inhibitory concentration (IC50) in test [2] turned out to be 1600 nM.

As to `CC(C)c1n[nH]c2nccc(-c3cn(C)nc3-c3ccc(F)cn3)c12` [Example 122, 4-[3-(5-Fluoro-2-pyridyl)-1-methyl-pyrazol-4-yl]-3-isopropyl-1H-pyrazolo[3,4-b]pyridine], in test [1], the AC50 worked out at 15 nM. The 50% inhibitory concentration (IC50) in test [2] was more than 10000 nM.

On to `Cc1nc(-c2cn(C)nc2-c2ccc(F)cn2)c2cc[nH]c2n1` [Example 123, 4-[3-(5-Fluoro-2-pyridyl)-1-methyl-pyrazol-4-yl]-2-methyl-7H-pyrrolo[2,3-d]pyrimidine Trifluoroacetate Salt], for which the AC50 in test [1] stood at 4 nM. Further, the IC50 in test [2] worked out at 234 nM.

Regarding `Cc1nc(-c2cn(C)nc2-c2ccc(F)cn2)c2cn[nH]c2n1` [Example 124, 4-[3-(5-Fluoro-2-pyridyl)-1-methyl-pyrazol-4-yl]-6-methyl-1H-pyrazolo[3,4-d]pyrimidine], the AC50 in test [1] came out at 52 nM. Besides, the half-inhibitory concentration (IC50) in test [2] worked out at 1940 nM.

As for `Cn1cc(-c2nc(C3CC3)nc3[nH]ccc23)c(-c2ccc(F)cn2)n1` [Example 125, 2-Cyclopropyl-4-[3-(5-fluoro-2-pyridyl)-1-methyl-pyrazol-4-yl]-7H-pyrrolo[2,3-d]pyrimidine], the AC50 in test [1] worked out at 66 nM. Besides, in test [2], the IC50 amounted to 1910 nM.

On to `Cn1cc(-c2ccnc3cccnc23)c(-c2ccc(F)cn2)n1` [Example 126, 4-[3-(5-Fluoro-2-pyridyl)-1-methyl-pyrazol-4-yl]-1,5-naphthyridine], for which the AC50 in test [1] was 26 nM. In test [2], the IC50 turned out to be 4620 nM.

`Cn1cc(-c2ccnc3ccc(F)nc23)c(-c2ccc(F)cn2)n1` [Example 127, 2-Fluoro-8-[3-(5-fluoro-2-pyridyl)-1-methyl-pyrazol-4-yl]-1,5-naphthyridine]: the AC50 in test [1] came to 46 nM. Moreover, the IC50 in test [2] was determined as 962 nM.

As to `CCOc1ccc2nccc(-c3cn(C)nc3-c3ccc(F)cn3)c2n1` [Example 128, 2-Ethoxy-8-[3-(5-fluoro-2-pyridyl)-1-methyl-pyrazol-4-yl]-1,5-naphthyridine], the AC50 in test [1] turned out to be 11 nM. The IC50 in test [2] amounted to 103 nM.

On to `COc1ccc2nccc(-c3cn(C)nc3-c3ccc(F)cn3)c2c1` [Example 129, 4-[3-(5-Fluoro-2-pyridyl)-1-methyl-pyrazol-4-yl]-6-methoxy-quinoline], for which the AC50 in test [1] is 109 nM. The IC50 in test [2] was 785 nM.

In the case of `Cc1ccc2nccc(-c3cn(C)nc3-c3ccc(F)cn3)c2n1` [Example 131, 8-[3-(5-Fluoro-2-pyridyl)-1-methyl-pyrazol-4-yl]-2-methyl-1,5-naphthyridine], the AC50 in test [1] was 310 nM. In test [2], the IC50 was determined as 4480 nM.

In the case of `Cc1csc2c(-c3cn(C)nc3-c3ccc(F)cn3)ccnc12` [Example 132, 7-[3-(5-Fluoro-2-pyridyl)-1-methyl-pyrazol-4-yl]-3-methyl-thieno[3,2-b]pyridine], the AC50 in test [1] came out at 361 nM. The half-maximal inhibitory concentration (IC50) in test [2] came to 5170 nM.

In the case of `Cc1ccnc2c(-c3cn(C)nc3-c3ccc(F)cn3)ccnc12` [Example 133, 4-[3-(5-Fluoro-2-pyridyl)-1-methyl-pyrazol-4-yl]-8-methyl-1,5-naphthyridine], the AC50 in test [1] worked out at 7030 nM. In addition, in test [2], the IC50 is more than 10000 nM.

Consider `Cc1cc(-c2cn(C3CC3)nc2-c2ccc(F)cn2)c2cn[nH]c2n1` [Example 134, 4-[1-Cyclopropyl-3-(5-fluoro-2-pyridyl)pyrazol-4-yl]-6-methyl-1H-pyrazolo[3,4-b]pyridine], for which the AC50 in test [1] is 30 nM. In addition, the IC50 in test [2] was determined as 329 nM.

On to `Cc1cc(-c2nn(C)cc2-c2cc(C)nc3[nH]ncc23)ccn1` [Example 135, 6-Methyl-4-[1-methyl-3-(2-methyl-4-pyridyl)pyrazol-4-yl]-1H-pyrazolo[3,4-b]pyridine], for which, in test [1], the AC50 was 168 nM. Moreover, the IC50 in test [2] was 7120 nM.

For `Cc1cc(-c2cn(C)nc2-c2ccncc2C)c2cn[nH]c2n1` [Example 136, 6-Methyl-4-[1-methyl-3-(3-methyl-4-pyridyl)pyrazol-4-yl]-1H-pyrazolo[3,4-b]pyridine], in test [1], the AC50 was found to be 1040 nM. Further, the IC50 in test [2] is more than 10000 nM.

As to `Cc1cncc(-c2nn(C)cc2-c2cc(C)nc3[nH]ncc23)c1` [Example 137, 6-Methyl-4-[1-methyl-3-(5-methyl-3-pyridyl)pyrazol-4-yl]-1H-pyrazolo[3,4-b]pyridine], the AC50 in test [1] was found to be 38 nM. Moreover, the IC50 in test [2] was found to be 890 nM.

`Cc1cc(-c2cn(C)nc2-c2ccncc2Cl)c2cn[nH]c2n1` [Example 138, 4-[3-(3-Chloro-4-pyridyl)-1-methyl-pyrazol-4-yl]-6-methyl-1H-pyrazolo[3,4-b]pyridine]: the concentration at half-maximal activity (AC50) in test [1] was 217 nM. In addition, the IC50 in test [2] was found to be 8620 nM.

For `Cc1cc(-c2cn(C)nc2-c2cncc(Cl)c2)c2cn[nH]c2n1` [Example 139, 4-[3-(5-Chloro-3-pyridyl)-1-methyl-pyrazol-4-yl]-6-methyl-1H-pyrazolo[3,4-b]pyridine], the half-maximal activity concentration (AC50) in test [1] was 18 nM. Besides, the IC50 in test [2] came out at 506 nM.

On to `Cc1cc(-c2cn(C)nc2-c2c(C)cncc2F)c2cn[nH]c2n1` [Example 140, 4-[3-(3-Fluoro-5-methyl-4-pyridyl)-1-methyl-pyrazol-4-yl]-6-methyl-1H-pyrazolo[3,4-b]pyridine], for which the AC50 in test [1] worked out at 1170 nM. Also, in test [2], the concentration for half-maximal inhibition (IC50) is more than 10000 nM.

For `COc1ncc(-c2nn(C)cc2-c2cc(C)nc3[nH]ncc23)cc1C` [Example 141, 4-[3-(6-Methoxy-5-methyl-3-pyridyl)-1-methyl-pyrazol-4-yl]-6-methyl-1H-pyrazolo[3,4-b]pyridine], the AC50 in test [1] amounted to 44 nM. For the same compound, the IC50 in test [2] was 2020 nM.

On to `COc1ncc(-c2nn(C)cc2-c2cc(C)nc3[nH]ncc23)cc1Cl` [Example 142, 4-[3-(5-Chloro-6-methoxy-3-pyridyl)-1-methyl-pyrazol-4-yl]-6-methyl-1H-pyrazolo[3,4-b]pyridine], for which the AC50 in test [1] stood at 28 nM. In test [2], the concentration for half-maximal inhibition (IC50) stood at 382 nM.

For `Cc1cc(-c2nn(C)cc2-c2cc(C)nc3[nH]ncc23)cnn1` [Example 143, 6-Methyl-4-[1-methyl-3-(6-methylpyridazin-4-yl)pyrazol-4-yl]-1H-pyrazolo[3,4-b]pyridine], in test [1], the AC50 was determined as 1540 nM. In test [2], the IC50 is more than 10000 nM.

Turning to `Cn1cc(-c2ccnc3c2ccn3C)c(-c2ccc(F)cn2)n1` [Example 144, 4-[3-(5-Fluoro-2-pyridyl)-1-methyl-pyrazol-4-yl]-1-methyl-pyrrolo[2,3-b]pyridine], the AC50 in test [1] is 77 nM. In addition, the IC50 in test [2] is 1720 nM.

For the compound `Cn1cc(-c2ccnc3sccc23)c(-c2ccc(F)cn2)n1` [Example 145, 4-[3-(5-Fluoro-2-pyridyl)-1-methyl-pyrazol-4-yl]thieno[2,3-b]pyridine], in test [1], the AC50 came out at 40 nM. Besides, in test [2], the IC50 came to 778 nM.

As to `Cn1cc(-c2cc(C(F)F)nc3[nH]ncc23)c(-c2cncc(F)c2)n1` [Example 146, 6-(Difluoromethyl)-4-[3-(5-fluoro-3-pyridyl)-1-methyl-pyrazol-4-yl]-1H-pyrazolo[3,4-b]pyridine], in test [1], the concentration at half-maximal activity (AC50) was 171 nM. Moreover, the IC50 in test [2] came out at 6570 nM.

As to `Cn1cc(-c2ccnc3c(F)cccc23)c(-c2ccc(F)cn2)n1` [Example 147, 8-Fluoro-4-[3-(5-fluoro-2-pyridyl)-1-methyl-pyrazol-4-yl]quinoline], in test [1], the AC50 was determined as 1100 nM. For the same compound, the IC50 in test [2] is more than 10000 nM.

Regarding `COc1cccc2c(-c3cn(C)nc3-c3ccc(F)cn3)ccnc12` [Example 148, 4-[3-(5-Fluoro-2-pyridyl)-1-methyl-pyrazol-4-yl]-8-methoxy-quinoline], the AC50 in test [1] turned out to be 7090 nM. For the same compound, the IC50 in test [2] was more than 10000 nM.

Take `Cn1cc(-c2ccnc3cc(C#N)ccc23)c(-c2ccc(F)cn2)n1` [Example 149, 4-[3-(5-Fluoro-2-pyridyl)-1-methyl-pyrazol-4-yl]quinoline-7-carbonitrile]: in test [1], the concentration at half-maximal activity (AC50) was found to be 124 nM. In addition, the IC50 in test [2] is more than 10000 nM.

In the case of `Cn1cc(-c2ccnc3ccc(C#N)cc23)c(-c2ccc(F)cn2)n1` [Example 150, 4-[3-(5-Fluoro-2-pyridyl)-1-methyl-pyrazol-4-yl]quinoline-6-carbonitrile], the AC50 in test [1] was 113 nM. Further, the IC50 in test [2] worked out at 1820 nM.

As to `COc1cc(OC)c2c(-c3cn(C)nc3-c3ccc(F)cn3)ccnc2c1` [Example 151, 4-[3-(5-Fluoro-2-pyridyl)-1-methyl-pyrazol-4-yl]-5,7-dimethoxy-quinoline], in test [1], the AC50 was found to be 38 nM. Besides, the IC50 in test [2] worked out at 453 nM.

For the compound `Cn1cc(-c2ccnc3cc(F)cnc23)c(-c2ccc(F)cn2)n1` [Example 152, 3-Fluoro-8-[3-(5-fluoro-2-pyridyl)-1-methyl-pyrazol-4-yl]-1,5-naphthyridine], in test [1], the half-maximal activity concentration (AC50) worked out at 73 nM. Also, the IC50 in test [2] amounted to 578 nM.

As for `Cn1cc(-c2ccnc3cc(Br)cnc23)c(-c2ccc(F)cn2)n1` [Example 153, 3-Bromo-8-[3-(5-fluoro-2-pyridyl)-1-methyl-pyrazol-4-yl]-1,5-naphthyridine], the concentration at half-maximal activity (AC50) in test [1] came to 39 nM. The IC50 in test [2] is 579 nM.
